Experimental data from ChEMBL document CHEMBL1158755, “Bromophenols coupled with derivatives of amino acids and nucleosides from the red alga Rhodomela confervoides” (J Nat Prod, 2005).

Experiments:
[1] = tested on: MCF7; experiment: Cytotoxicity against human MCF7 cells by MTT assay; format: functional, cell-based
[2] = tested on: BGC-823; experiment: Cytotoxicity against human BGC823 cells by MTT assay; format: functional, cell-based
[3] = tested on: Candida albicans; experiment: Antifungal activity against Candida albicans after 24 hrs; format: functional
[4] = tested on: Escherichia coli; experiment: Antibacterial activity against Escherichia coli; format: functional
[5] = tested on: Bel-7402; experiment: Cytotoxicity against human Bel7402 cells by MTT assay; format: functional, cell-based
[6] = tested on: A549; experiment: Cytotoxicity against human A549 cells by MTT assay; format: functional, cell-based
[7] = tested on: Staphylococcus aureus; experiment: Antibacterial activity against Staphylococcus aureus; format: functional
[8] = tested on: HCT-8; experiment: Cytotoxicity against human HCT8 cells by MTT assay; format: functional, cell-based

| MIC50 [3] [µg/mL] | MIC50 [4] [µg/mL] | MIC50 [7] [µg/mL] | SMILES | IC50 [1] [µg/mL] | IC50 [2] [µg/mL] | IC50 [5] [µg/mL] | IC50 [6] [µg/mL] | IC50 [8] [µg/mL] |
| --- | --- | --- | --- | --- | --- | --- | --- | --- |
| > 100 | > 100 | > 100 | COC(=O)C1CCC(=O)N1Cc1cc(O)c(O)c(Br)c1Cc1cc(O)c(O)c(Br)c1Br (configuration not stated) | > 10 | > 10 | > 10 | > 10 | > 10 |
| > 100 | > 100 | > 100 | COC(=O)C1CCC(=O)N1Cc1cc(O)c(O)c(Br)c1Br (configuration not stated) | > 10 | > 10 | > 10 | > 10 | > 10 |
| > 100 | > 100 | > 100 | OC[C@H]1O[C@@H](n2cnc3cnc(NCc4cc(O)c(O)c(Br)c4Br)nc32)[C@H](O)[C@@H]1O | > 10 | > 10 | > 10 | > 10 | > 10 |
| > 100 | > 100 | > 100 | O=C(O)C1CCC(=O)N1Cc1cc(O)c(O)c(Br)c1Br (configuration not stated) | > 10 | > 10 | > 10 | > 10 | > 10 |
